Results on five molecules are retold here after EP0200024B1, “3-Cyano-pyridines, process for their preparation and their pharmaceutical use” (ARZNEIMITTELWERK DRESDEN GmbH, priority 1985, dated 1986).

The test system of one assay is Langendorff-Herz. Put plainly: Langendorff heart in vitro (isolated perfused, freely beating heart; inotropy, chronotropy, coronary flow). The arrangement: species or system Meerschweinchen. Conditions: for EC30: molarity of solution, 0,1 ml bolus into aortic stump, giving 30 % increase of inotropy, read-out: Erhöhung der Inotropie um 30 % bei Applikation von je 0,1 ml einer ... molaren Lösung; for EC100: molarity of solution, 0,1 ml bolus, giving 100 % increase of coronary flow, read-out: Erhöhung des Koronardurchflusses um 100 % bei Applikation von je 0,1 ml einer ... molaren Lösung; for positiv chronotrope Wirkung / positiv inotrope Wirkung: result in words. On the procedure: Für die Versuche wurden männliche Meerschweinchen mit einer, Körpermasse von 300-350 g eingesetzt. An isolierten, mit carbogenbegaster Tyrodelösung von 37 °C durchströmten, frei schlagenden Herzen, wurden unter konstantem Druck die Kontraktionskraft (Inotropie), die Frequenz (Chronotropie) und der Koronardurchfluß unter dem Einfluß der 3-Cyan-2-(heteroalkyl-1-hetero)-5-(pyrid-4-yl)-pyridine der Formel I untersucht. Dazu wurden jeweils 0,1 ml der entsprechend molaren Substanzlösungen als Bolus direkt in den Aortenstumpf appliziert. Die 3-Cyan-2-(heteraalkyl-1-hetera)-5-(pyrid-4-yl)-pyridine zeigten eine teilweise starke und konzentrationsabhängige positiv inotrope und koronardilatatorische Wirkung. Die positiv chronotrope Wirkung war deutlich geringer, ausgeprägt. Beispielsweise zeigen die Verbindungen der Beispiele 1.2, 1.6, 1.7 und 1.8 eine Erhöhung der Inotropie um 30 % bei Applikation von je 0,1 ml einer 3,0 · 10⁻³, 2,2 · 10⁻², 2,0 · 10⁻⁴ bzw. 1,0 · 10⁻³ molaren Lösung und eine Erhöhung des Koronardurchflusses um 100 % bei Applikation von je 0,1 ml einer 6,0 · 10⁻³, 6,5 · 10⁻², 1,1 · 10⁻² bzw. 1,3 · 10⁻² molaren Lösung. Die Verbindungen der Beispiele 2.2, 2.3 und 2.4 weisen bei Applikation von je 0,1 ml einer 10⁻² molaren Stammlösung in die Aorta eine Erhöhung der Inotropie um 51 %, 38 % und 31 % sowie eine Erhöhung des Koronardurchflusses um 59 %, 99 % bzw. 88 % auf.

The test system of assay [1] is Isolierter, spontanaktiver Vorhof des Meerschweinchens. Put plainly: Isolated, spontaneously active atrium (inotropy and frequency). The arrangement: species or system Meerschweinchen. The conditions noted are these: for chronotrope Wirkung / positiv inotrope Wirkung: result in words. On the procedure:
Für die Versuche wurden männliche Meerschweinchen mit einer Körpermasse von 400-500 g verwendet. Am isolierten, spontanaktiven Vorhof erfolgte nach einer 60 Min. währenden Adaptationszeit der Organpräparate in 32 °C temperierter carbogen-durchperlter Tyrodelösung die Untersuchung der Beeinflussung von Inotropie und Frequenz unter Einwirkung der 3-Cyan-2-(heteroalkyl-1-hetero)-pyridine der Formel I. Eine Reihe von Verbindungen zeigte eine starke und dosisabhängige positiv inotrope Wirkung. Bei Verwendung einer Tyrodelösung nach A.A. Alousi et al. [Circ. Res. 45, 666 (1979)] zeigen beispielsweise die Verbindungen von Beispiel 1.2, 1.7, 1.27, 3.3, 3.4, 3.5, 4.1 bzw. 4.3 eine 30%ige Steigerung der Inotropie bei Konzentrationen von 5,6 · 10⁻⁵, 5,4 · 10⁻⁶, 5,0 · 10⁻⁵, 5,8 · 10⁻⁵, 9,1 · 10⁻⁵, 1,6 · 10⁻⁴, 3,5 · 10⁻⁵ und 5,4 · 10⁻⁵ mol/l. Die Verbindung von Beispiel 1.27 zeigt bei einer Konzentration von 5 · 10⁻⁵ mol/l eine Abnahme der Frequenz um 15 %. Die Verbindung von Beispiel 1.8 zeigt bei Verwendung einer Tyrodelösung mit der Zusammensetzung (mmol/l): NaCl 136,9; KCl 2,7; CaCl₂ 1,8; MgCl₂ 1,0; NaHCO₃ 11,9; NaH₂PO₄ 0,4; Glucose 16,5 eine 30%ige Steigerung der Inotropie bei einer Konzentration von 1,2 · 10⁻⁴ mol/l.

For assay [2], the system named is Samenleiter von Meerschweinchen. Description: Noradrenaline antagonism in vitro (noradrenaline contraction of isolated vas deferens). Conditions: for IC50: Cavia porcellus, compound given 1 min before submaximal noradrenaline concentration, read-out: ED₅₀-Werte (Hemmung der Noradrenalinkontraktion); for Hemmung der Noradrenalinkontraktion: result in words. The method, then: Die in Warmblüterphosphattyrode präparierten Samenleiter von Meerschweinchen (ca. 400 g Körpermasse) wurden 60 Min. im Organbad adaptiert. Anschließend wurden die Kontraktionen unter Gabe von Noradrenalin isotonisch registriert. Die 3-Cyan-2-(heteroalkyl-1-hetero)-pyridine der Formel I wurden 1 Min vor den jeweils submaximal reagierenden Noradrenalinkonzentrationen in das Organbad appliziert. […] Für die Verbindungen von Beispiel 1.2, 1.6, 1.7 und 1.8 ergaben sich beispielsweise ED₅₀-Werte von 2,2 · 10⁻⁵, 1,6 · 10⁻⁴, 2,5 · 10⁻⁴ sowie 1,3 · 10⁻⁴ mol/l.

The next assay concerns Meerschweinchen. Description: Inhalative histamine bronchospasm, oral administration. Type of assay: in vivo. The conditions noted are these: Cavia porcellus, 1 h, 60 min before inhaled 0,1 % histamine, 10 animals per dose, read-out: ED₅₀-Werte (Schutz vor Histamin-Bronchialkonstriktionen). The method, then: Eine, in einem Ultraschallverdampfer vernebelte 0,1 %ige Histaminlösung induziert an männlichen Meerschweinchen (Körpermasse 200-300 g) innerhalb von 2 bis 3 Min. typische Bronchialkonstriktionen. Durch orale Verabreichung geeigneter Dosen der 3-Cyan-2-(heteroalkyl-1-hetero)-pyridine der Formel I 60 Min. vor der inhalativen Histamingabe wurden die Tiere innerhalb einer festgelegten Expositionszeit vor den durch Histamin verursachten Bronchialkonstriktionen geschützt. Für die Derivate von Beispiel 1.2, 1.6, 1.7 und 1.8 ergeben sich z.B. aus je 10 Tieren pro Dosis ED₅₀-Werte von 4,3 · 10⁻⁴, 6,0 · 10⁻⁴, 3,3 · 10⁻⁴ sowie 2,5 · 10⁻⁴ mol/kg, was auf deutliche bronchodilatatorische bzw. antiallergische Wirkungen hinweist.

The subject of another assay is Narkotisierter Hund. Description: Anaesthetised dog i.v. (left ventricular pressure dp/dtmax, arterial pressure). Type of assay: in vivo, Bastardhunden. The text has this:
Die Untersuchungen wurden an Bastardhunden in Chloralose-Urethan-Narkose bei Prämedikation mit Morphinhydrochlorid unter spontaner Atmung durchgeführt. . Der linksventrikuläre Druck wurde mittels Tipmanometer und der arterielle Druck wurde über Herzkatheter via A. brachialis gemessen [vgl. K. Femmer et al., Pharmazie 30 642 (1975)]. Unter dem Einfluß der 3-Cyan-2-(heteroalkyl-1-hetero)-pyridine der Formel I wurden eine dosisabhängige beträchtliche. Steigerung der Kontraktionskraft des Herzens sowie teilweise eine signifikante Senkung des peripheren Gesamtwiderstandes beobachtet. So zeigen beispielsweise die Verbindungen von Beispiel 3.2, 4.1, 4.3 und 4.5 eine 50%ige Steigerung des Kontraktilitätsparameters dp/dtmax bei einer Dosis von 6,1 · 10⁻⁶, 1,4 · 10⁻⁶, 2,5 · 10⁻⁶ bzw. 2.0 · 10⁻⁶ mol/kg sowie eine 10%ige Senkung des diastolischen Blutdruckes als relevantes Maß einer Abnahme des peripheren Gesamtwiderstandes bei einer Dosis von 2,1 · 10⁻⁶, 1,6 · 10⁻⁶,1,6 · 10⁻⁶ bzw. 1,2 · 10⁻⁶ mol/kg. Die Verbindung von Beispiel 2.1 zeigt bei einer Dosis von 5 mg/kg eine Steigerung von dp/dtmax um 126 % Für die Verbindung von Beispiel 2.1 wurde bei einer Dosis von 5 mg/kg eine Senkung des diastolischen Blutdruckes um 37 % gefunden.

Assay [3] relates to Narkotisiertes Minischwein. Put plainly: Anaesthetised minipig i.v. (dp/dtmax, blood pressure). The conditions noted are these: result in words. It is filed as in vivo, Zwergschweinen (Mini-LEWE). The text has this:
Die Untersuchungen wurden an 6 männlichen Zwergschweinen (Mini-LEWE) mit einem durchschnittlichen Gewicht von 50 kg durchgeführt. Die Tiere wurden unter N₂O-O₂-Beatmung (3:1) und Muskelrelaxation (d-Tubocurarin) thorakotomiert. Der Blutdruck wurde in der Aorta ascendens mittels Transducer und der Druck im linken Ventrikel (LVP) mit einem Tipmanometer gemessen. Aus dem LVP-Signal wurde über ein Differenzierglied dp/dtmax ermittelt. Aus dem EKG wurde mit einem Kardiotachometer die Herzfrequenz zusammen mit anderen Signalen registriert. Das Herz-Zeit-Volumen wurde mit einem elektromagnetischen Flowmeter gemessen und über einen Integrator das Herz-Schlag-Volumen ermittelt. Einige der 3-Cyan-2-(heteroalkyl-1-hetero)-pyridine der Formel I zeigen an diesem Modell eine starke und dosisabhängige Erhöhung der Kontraktilität des Herzens (dp/dtmax) sowie teilweise eine signifikante Senkung des totalen peripheren Gesamtwiderstandes. So wurden beispielsweise unter den Verbindungen von Beispiel 1.2 und 1.7 bei einer Dosis von 2,0 · 10⁻⁶ bzw. 5,5 · 10⁻⁷ eine 50%ige Steigerung des Kontraktilitätsparameters dp/dtmax sowie bei einer Dosis von 1,1 · 10⁻⁶ bzw. 1,7 · 10⁻⁶ eine 10%ige Senkung des diastolischen Blutdruckes, der neben der beobachteten Steigerung des Herzzeitvolumens eine wesentliche Größe zur Bestimmung des totalen peripheren Gefäßwiderstandes darstellt, gefunden.

Setting [4] is: Tyrode solution according to A.A. Alousi et al., 32 °C, read-out: 30%ige Steigerung der Inotropie bei Konzentrationen von.

Like-named read-outs stand apart in the source and are kept apart here.

Regarding `N#Cc1cc(-c2ccncc2)cnc1NCCCO` [Beispiel 1.8, 3-Cyan-2-(3-hydroxy-propylamino)-5-(pyrid-4-yl)-pyridin], in the assay on Langendorff-Herz, the EC30 is 1000 µM, the EC100 was 13000 µM, the “positiv chronotrope Wirkung” value is reported as “relative geringer positiv chronotroper Aktivität” and the “positiv inotrope Wirkung” value is listed as “ausgeprägte und dosisabhängige positiv inotrope Wirkung”. Besides, the EC30 in assay [1] (Tyrode solution (mmol/l): NaCl 136,9, KCl 2,7, CaCl₂ 1,8, MgCl₂ 1,0, NaHCO₃ 11,9, NaH₂PO₄ 0,4, Glucose 16,5, read-out: 30%ige Steigerung der Inotropie bei einer Konzentration von) amounted to 120 µM. Besides, in assay [1], the “chronotrope Wirkung” value is “relative geringer positiv chronotroper Aktivität” and the “positiv inotrope Wirkung” value is on record as “ausgeprägte und dosisabhängige positiv inotrope Wirkung”. Further, the IC50 in assay [2] turned out to be 130 µM. Further, the ED50 in the assay on Meerschweinchen worked out at 250 µmol/kg.
In the case of `CC(=O)OCCOc1ncc(-c2ccncc2)cc1C#N` [Beispiel 4.3, 2-(2-Acetoxy-ethoxy)-3-cyan-5-(pyrid-4-yl)-pyridin], in assay [1] (setting [4]), the EC30 came out at 54 µM. Moreover, in assay [1], the “positiv inotrope Wirkung” value is on record as “gute und dosisabhängige positiv inotrope Wirkung”. Moreover, the ED10 with Narkotisierter Hund (Canis lupus familiaris, iv, read-out: 10%ige Senkung des diastolischen Blutdruckes bei einer Dosis von) was found to be 1.6 µmol/kg. In addition, in the assay on Narkotisierter Hund (Canis lupus familiaris, iv, read-out: 50%ige Steigerung des Kontraktilitätsparameters dp/dtmax bei einer Dosis von), the ED50 was 2.5 µmol/kg. The “Steigerungen des Kontraktilitätsparameters dp/dtmax” value in the assay on Narkotisierter Hund (result in words) is “dosisabhängige beträchtliche Steigerungen”.
Take `N#Cc1cc(-c2ccncc2)cnc1NCCO` [Beispiel 1.2, 3-Cyan-2-(2-hydroxy-ethylamino)-5-(pyrid-4-yl)-pyridin]: in the assay with Langendorff-Herz, the EC30 amounted to 3000 µM, the EC100 stood at 6000 µM, the “positiv chronotrope Wirkung” value was “relative geringer positiv chronotroper Aktivität” and the “positiv inotrope Wirkung” value is recorded as “ausgeprägte und dosisabhängige positiv inotrope Wirkung”. Besides, the EC30 in assay [1] (setting [4]) is 56 µM. In assay [1], the “chronotrope Wirkung” value was “relative geringer positiv chronotroper Aktivität” and the “positiv inotrope Wirkung” value is “ausgeprägte und dosisabhängige positiv inotrope Wirkung”. Besides, in assay [3], the “Senkung des diastolischen Blutdruckes” value is “dosisabhängige signifikante Senkung” and the “Steigerung des Kontraktilitätsparameters dp/dtmax” value is recorded as “beträchtliche dosisabhängige Steigerung”. Besides, in assay [2], the IC50 amounted to 22 µM and the “Hemmung der Noradrenalinkontraktion” value was “konzentrationsabhängige Hemmung”. Besides, the ED50 with Meerschweinchen is 430 µmol/kg.
With `N#Cc1cc(-c2ccncc2)cnc1N1CCOCC1` [Beispiel 1.7, 3-Cyan-2-morpholino-5-(pyrid-4-yl)-pyridin], in the assay with Langendorff-Herz, the EC30 is 200 µM, the EC100 was 11000 µM, the “positiv chronotrope Wirkung” value was “relative geringer positiv chronotroper Aktivität” and the “positiv inotrope Wirkung” value is “ausgeprägte und dosisabhängige positiv inotrope Wirkung”. Moreover, the EC30 in assay [1] (setting [4]) was found to be 5.4 µM. Also, in assay [1], the “chronotrope Wirkung” value is recorded as “relative geringer positiv chronotroper Aktivität” and the “positiv inotrope Wirkung” value was “ausgeprägte und dosisabhängige positiv inotrope Wirkung”. In addition, in assay [3], the “Senkung des diastolischen Blutdruckes” value is “dosisabhängige signifikante Senkung” and the “Steigerung des Kontraktilitätsparameters dp/dtmax” value is listed as “beträchtliche dosisabhängige Steigerung”. Moreover, in assay [2], the IC50 was 250 µM and the “Hemmung der Noradrenalinkontraktion” value was “konzentrationsabhängige Hemmung”. For the same molecule, the ED50 in the assay with Meerschweinchen came to 330 µmol/kg.
For `N#Cc1cc(-c2ccncc2)cnc1N(CCO)CCO` [Beispiel 1.6, 2-[Bis-(2-hydroxy-ethyl)-amino]-3-cyan-5-(pyrid-4-yl)-pyridin], in the assay on Langendorff-Herz, the EC30 turned out to be 22000 µM and the EC100 came to 65000 µM. In addition, the IC50 in assay [2] was 160 µM. For the same molecule, in the assay with Meerschweinchen, the ED50 is 600 µmol/kg.
